This note sets out measurements from patent US20130011384A1, “Use of a Material, Produced from Fungal Fermentation, as a Food Supplement” (priority 2010, published 2013).

The test system of this assay is methanogenic archaea. The experiment in a line: In vitro sequential batch fermentation of sheep ruminal fluid with alfalfa hay (Example 2). Type of assay: cell-based. Particulars: for Acetate / Butyrate / Gas / Methane / Propionate / Total VFA: 48 hrs at 39° C., 100 μl/tube, monacolin K 20 μg/ml final. The text has this: The effect of a rice extract fermented by a selected strain of Monascus sp., prepared in accordance with Example 1, on ruminal fermentation, specifically on methane production, was studied in vitro by using a sequential batch fermentation system.
Three sheep equipped with rumen cannulae, receiving hay-based feed twice a day, were used as ruminal content donors. The ruminal contents of the three animals were sampled in the morning before feeding, filtered through a cloth with a mesh size of 400 μm in diameter in order to obtain the liquid phase, and mixed in equal quantities. To seventy-five milliliters of this mixed ruminal fluid was added 300 ml of anaerobic buffer solution (Weller & Pilgrim, Br. J. Nutr. 32:341-51. 1974). An aliquot fraction (5 ml) of this ruminal fluid/buffer solution was then transferred into Hungate tubes in a CO2 atmosphere containing 100±2 mg of alfalfa hay. To each tube was added, respectively: (i) 100 μl of the Monascus extract, or (ii) pure monacolin K, (iii) a 25% (v/v) ethanol solution, or (iv) water (see Table 1 below). The tubes were incubated at 39° C. for 48 hrs. Each treatment was performed three times.
After 48 hrs. of incubation, 2 ml of each of the triplicates of each treatment were mixed, and 1.5 ml of this mixture was used to inoculate 3 new Hungate tubes containing 3.5 ml of buffer and 100 mg of alfalfa hay.
Next, 100 μl of the various treatments was added to the tubes (Cf. Table 1 above), and the tubes were again incubated at 39° C. while stirring for an additional 48 hrs. This procedure was repeated a second time.
At the end of each 48-hr. period, gas production and concentrations of methane and of volatile fatty acids resulting from fermentation were measured.

In the case of `CC[C@H](C)C(=O)O[C@H]1C[C@@H](C)C=C2C=C[C@H](C)[C@H](CC[C@@H]3C[C@@H](O)CC(=O)O3)[C@H]21` [Monacolin K, monacolin K], under “1st Transfer”, the Acetate was 69.6 ± 1.5 mmol/L, the Butyrate came out at 6.1 ± 0.1 mmol/L, the Gas worked out at 21.9 ± 0.3 mL and the Methane worked out at 162.5 ± 22.9 µmol. Moreover, where the note is “1st Transfer”, the Propionate stood at 16.7 ± 0.4 mmol/L and the “Total VFA” value amounted to 96.3 ± 2.1. In addition, under “2nd Transfer”, the Acetate was found to be 49.1 ± 3.8 mmol/L, the Butyrate was determined as 5.9 ± 0.7 mmol/L, the Gas was found to be 17.8 ± 0.5 mL and the Methane turned out to be 16.2 ± 17.0 µmol. Also, under “2nd Transfer”, the Propionate turned out to be 19.7 ± 2.8 mmol/L and the “Total VFA” value was 76.5 ± 7.4. Also, under “3rd Transfer”, the Acetate was 57.3 ± 6.9 mmol/L, the Butyrate was 6.6 ± 1.0 mmol/L, the Gas came to 19.2 ± 0.4 mL and the Methane turned out to be 59.1 ± 9.4 µmol. Besides, where the note is “3rd Transfer”, the Propionate came out at 28.5 ± 3.5 mmol/L and the “Total VFA” value came out at 95.1 ± 11.5. Moreover, the methane-production-reducing effect entry (in vitro, under the same conditions as the Monascus fermentation product) is reported as “no methane-production-reducing effect”.
